In PMC7006908 (PLoS ONE, 2020):
“And” between values parts separate entries of the source, which are not always exact repeats. Equal entries are not always repeated. Where two headings read alike, the source gives them in different places. Each block holds one molecule with its values, some of them ahead of it.

Experiments:
[1] = patients, cited from earlier work
[2] = Stability of deproteinized QCs in autosampler at 4 °C; assay type: physicochemical; details: for Acc. %, T = 72 h in autosampler (4°C): % of nominal
Protocol: (§1) Stability tests were conducted using QCs prepared in triplicate at each concentration (L, M, H): bench-top stability was investigated after 4 h at room temperature; stability of the deproteinized QCs was evaluated in autosampler set at 4 °C re-analysing the samples 24, 48, and 72 h after the first injection; freeze/thaw stability was assessed by analysing three freshly prepared aliquots of each QCs concentration, and then again after one and two freeze/thaw cycles.

[3] = Bench-top stability in human plasma, 4 h at room temperature; assay type: in vitro ADME
Protocol: as §1

[4] = Long term stability of working solutions in methanol at -20°C; assay type: physicochemical; details: for Acc. %, stored at -20ºC over 2 months (methanol): % of nominal
[5] = LC-MS/MS quantification of Cmin in plasma samples from breast cancer patients (clinical study CRO-2018-83); assay type: in vivo, human; details: for concentration at 30 h / concentration at 25 h / concentration at 1 week / concentration at 15 h: human, plasma, oral; for concentration at 30 h: patient 8, sample 10, RIBO 600 mg/day + LETRO 2.5 mg/day; for concentration at 25 h / concentration at 1 week: 125 mg/day; for concentration at 25 h: patient 2, sample 3, PALBO 125 mg/day; for concentration at 1 week: patient 3, sample 4, PALBO 125 mg/day; for concentration at 15 h: patient 7, sample 9, PALBO 125 mg/day
Protocol: Preparation of calibration curve and QCs samples was conducted through the following steps: 1) 5 μL of working solutions were added to 95 μL of blank human plasma (dilution 1:20) and vortexed for 10 s; 2) a 10 μL-aliquot of this mix was added with 80 μL of cold IS working solution (see “Standard solutions preparation” section), vortexed and then centrifuged for 15 min at 16200 g and 4°C; 3) 70 μL of the supernatant were transferred to a polypropylene tube for the following analysis. […] The preparation of patients’ samples was conducted as following: patient plasma was thawed at room temperature, vortexed for 10 s and centrifuged, for 10 min, at 3000 g and 4°C; 10 μL of plasma was then treated according to steps 2) and 3).
The HPLC system was a SIL-20AC XR auto-sampler and LC-20AD UFLC XR pumps (Shimadzu, Tokyo, Japan). The mobile phases (MP) consisted of ultrapure water with 0.1% HCOOH (phase A) and methanol/isopropanol (9:1, v/v) with 0.1% HCOOH (phase B). The chromatographic separation was obtained on the Luna Omega Polar C18 column ([…], 100 Å, 50 x 2.1 mm) coupled with a Security Guard Cartridge (Polar, C18, 4 x 2.0 mm), both provided by Phenomenex (Castel Maggiore (BO), Italy). The mass spectrometry system used for the detection was an API 4000 triple quadrupole (AB SCIEX, Massachusetts, USA) with a TurboIonSpray source operating in positive ion mode. To optimize source and compound dependent parameters, solutions of each analyte at the concentration of 100 ng/mL were used with a flow rate of 20 μL/min. Data were processed with Analyst 1.6.3 and the quantification of the peaks was done with MultiQuant 2.1 (software package AB SCIEX).
The exclusion criteria were to be non-collaborative and/or unreliable patients and refusal of informed consent. Patients were asked to periodically (every two months) collect plasma samples for the estimation of PALBO or RIBO and/or LETRO Cmin during their therapy treatment.
Plasma was obtained immediately by centrifugation of the blood samples at 3000 g for 10 min at 4°C. Then the obtained plasma was split into two independent aliquots and stored at -80°C in two different freezers.
At present, each of the 10 patients’ samples collected were quantified in 2 separate runs during 2 different working days, to further assess the reproducibility of the proposed method. In fact, as recently introduced in the last version of the FDA guideline, incurred samples re-analysis (ISR) is necessary to show the reliability of the reported analyte concentrations obtained with a bioanalytical method. ISR is conducted by repeating the analysis of a subset of patients’ samples in separate runs. The two analyses can be considered equivalent if the percentage difference [expressed as: (repeat-original)*100/mean] between the first and the second concentration measured is within ±20% for at least 67% of the samples [23, 24].

[6] = Long term stability in human plasma at -80°C; assay type: in vitro ADME; details: for Acc. %, stored at -80ºC over 2 months (plasma): % of nominal
[7] = deproteinized QC high: nominal 200.00 PALBO / 8000.00 RIBO / 400.00 LETRO ng/mL
[8] = deproteinized QC low: nominal 0.50 PALBO / 20.00 RIBO / 1.00 LETRO ng/mL
[9] = deproteinized QC medium: nominal 20.00 PALBO / 800.00 RIBO / 40.00 LETRO ng/mL
[10] = QC high: nominal 200.00 PALBO / 8000.00 RIBO / 400.00 LETRO ng/mL
[11] = QC low: nominal 0.50 PALBO / 20.00 RIBO / 1.00 LETRO ng/mL
[12] = QC medium: nominal 20.00 PALBO / 800.00 RIBO / 40.00 LETRO ng/mL
[13] = reanalysis in second run, read-out: II quantif. plasma concentration (Cmin)

Mean ± SD measured concentration, T = 72 h in autosampler (4°C) [2, 7]: 8274.93 ± 207.29 ng/mL | Acc. %, T = 72 h in autosampler (4°C) [2, 7]: 103.4% | Mean ± SD measured concentration, T = 72 h in autosampler (4°C) [2, 8]: 21.24 ± 1.45 ng/mL | Acc. %, T = 72 h in autosampler (4°C) [2, 8]: 106.2% | Mean ± SD measured concentration, T = 72 h in autosampler (4°C) [2, 9]: 815.31 ± 36.72 ng/mL | Acc. %, T = 72 h in autosampler (4°C) [2, 9]: 101.9% | Mean ± SD measured concentration, T = 4h (RT) ([3]; plasma QC high: nominal 200.00 PALBO / 8000.00 RIBO / 400.00 LETRO ng/mL): 7218.92 ± 402.94 ng/mL | Mean ± SD measured concentration, T = 4h (RT) ([3]; plasma QC low: nominal 0.50 PALBO / 20.00 RIBO / 1.00 LETRO ng/mL): 18.86 ± 0.74 ng/mL | Mean ± SD measured concentration, T = 4h (RT) ([3]; plasma QC medium: nominal 20.00 PALBO / 800.00 RIBO / 40.00 LETRO ng/mL): 751.88 ± 27.56 ng/mL | Mean ± SD measured concentration, stored at -20ºC over 2 months (methanol) [4, 10]: 8522.63 ± 68.65 ng/mL | Acc. %, stored at -20ºC over 2 months (methanol) [4, 10]: 106.5% | Mean ± SD measured concentration, stored at -20ºC over 2 months (methanol) [4, 11]: 19.52 ± 0.30 ng/mL | Acc. %, stored at -20ºC over 2 months (methanol) [4, 11]: 97.6% | Mean ± SD measured concentration, stored at -20ºC over 2 months (methanol) [4, 12]: 885.44 ± 35.25 ng/mL | Acc. %, stored at -20ºC over 2 months (methanol) [4, 12]: 110.7% | concentration at 30 h ([5]; 30 h from last pills intake, read-out: I quantif. plasma concentration (Cmin)): 396 ng/mL | concentration at 30 h [5, 13]: 419 ng/mL | Mean ± SD measured concentration, stored at -80ºC over 2 months (plasma) [6, 10]: 7699.21 ± 117.73 ng/mL | Acc. %, stored at -80ºC over 2 months (plasma) [6, 10]: 96.2% | Mean ± SD measured concentration, stored at -80ºC over 2 months (plasma) [6, 11]: 21.10 ± 1.05 ng/mL | Acc. %, stored at -80ºC over 2 months (plasma) [6, 11]: 105.5% | Mean ± SD measured concentration, stored at -80ºC over 2 months (plasma) [6, 12]: 789.37 ± 28.89 ng/mL | Acc. %, stored at -80ºC over 2 months (plasma) [6, 12]: 98.7%
Structure (SMILES): CN(C)C(=O)c1cc2cnc(Nc3ccc(N4CCNCC4)cn3)nc2n1C1CCCC1 [RIBO, ribociclib]
in vivo RIBO plasma concentration (CV), Cmin, population mean ([1]; 20 (ref 19)): 711 ng/mL and 711 (72.9) ng/mL | in vivo RIBO plasma concentration (CV), upper end of range [1]: 3500 (65.8) ng/mL

Mean ± SD measured concentration, T = 72 h in autosampler (4°C) [2, 7]: 215.60 ± 8.28 ng/mL | Acc. %, T = 72 h in autosampler (4°C) [2, 7]: 107.8% | Mean ± SD measured concentration, T = 72 h in autosampler (4°C) [2, 8]: 0.54 ± 0.02 ng/mL | Acc. %, T = 72 h in autosampler (4°C) [2, 8]: 108.2% | Mean ± SD measured concentration, T = 72 h in autosampler (4°C) [2, 9]: 21.10 ± 1.23 ng/mL | Acc. %, T = 72 h in autosampler (4°C) [2, 9]: 105.5% | Mean ± SD measured concentration, stored at -20ºC over 2 months (methanol) [4, 10]: 219.18 ± 9.46 ng/mL | Acc. %, stored at -20ºC over 2 months (methanol) [4, 10]: 109.6% | Mean ± SD measured concentration, stored at -20ºC over 2 months (methanol) [4, 11]: 0.52 ± 0.02 ng/mL | Mean ± SD measured concentration, stored at -20ºC over 2 months (methanol) [4, 12]: 22.43 ± 0.63 ng/mL | concentration at 25 h ([5]; 25 h from last capsule intake, read-out: I quantif. plasma concentration (Cmin)): 77.5 ng/mL | concentration at 25 h [5, 13]: 82.4 ng/mL | concentration at 1 week ([5]; last PALBO intake 1 week before sampling, read-out: I quantif. plasma concentration (residual)): 1.6 ng/mL | concentration at 1 week ([5]; last intake 1 week before sampling, reanalysis in second run, read-out: II quantif. plasma concentration (residual)): 1.5 ng/mL | concentration at 15 h ([5]; LETRO 2.5 mg/day, last pill intake 15 h before sampling, read-out: I quantif. plasma concentration (Cmin)): 97.9 ng/mL | concentration at 15 h ([5]; LETRO 2.5 mg/day, reanalysis in second run, read-out: II quantif. plasma concentration (Cmin)): 96.2 ng/mL | I quantif. plasma concentration (Cmin) ([5]; patient 1, sample 1, PALBO 125 mg/day): 53.0 ng/mL | II quantif. plasma concentration (Cmin) ([5]; patient 1, sample 1, PALBO 125 mg/day, reanalysis in second run): 55.9 ng/mL | I quantif. plasma concentration (Cmin) ([5]; patient 2, sample 2, PALBO 125 mg/day): 76.9 ng/mL | II quantif. plasma concentration (Cmin) ([5]; patient 2, sample 2, PALBO 125 mg/day, reanalysis in second run): 84.2 ng/mL | I quantif. plasma concentration (Cmin) ([5]; patient 4, sample 5, PALBO 100 mg/day): 70.7 ng/mL | II quantif. plasma concentration (Cmin) ([5]; patient 4, sample 5, PALBO 100 mg/day, reanalysis in second run): 74.3 ng/mL | I quantif. plasma concentration (Cmin) ([5]; patient 5, sample 6, PALBO 125 mg/day): 39.5 ng/mL | II quantif. plasma concentration (Cmin) ([5]; patient 5, sample 6, PALBO 125 mg/day, reanalysis in second run): 43.0 ng/mL | I quantif. plasma concentration (Cmin) ([5]; patient 5, sample 7, PALBO 125 mg/day): 41.5 ng/mL | II quantif. plasma concentration (Cmin) ([5]; patient 5, sample 7, PALBO 125 mg/day, reanalysis in second run): 46.1 ng/mL | I quantif. plasma concentration (Cmin) ([5]; patient 6, sample 8, PALBO 125 mg/day, LETRO 2.5 mg/day): 69.7 ng/mL | II quantif. plasma concentration (Cmin) ([5]; patient 6, sample 8, PALBO 125 mg/day, LETRO 2.5 mg/day, reanalysis in second run): 74.0 ng/mL
Structure (SMILES): CC(=O)c1c(C)c2cnc(Nc3ccc(N4CCNCC4)cn3)nc2n(C2CCCC2)c1=O [PALBO, Palbociclib]
